# What was measured:
# [1] = light dose 50 J/cm^2; cited from earlier work
# [2] = system: C. albicans (strain SC-5134); experiment: Colony forming unit (CFU) phototoxicity assay; type: cell-based, Candida albicans
# Procedure: Colonies Formation Assay: Briefly, the 1 ml of each treatment condition was diluted into 1:10,000, 1:50,000 or 1:100,000 and plated 100 μL onto Sabouraud dextrose agar plate (Becton Dickinson, New Jersey, USA). All plates were incubated at 37° C. and colonies were imaged and counted the following day for each plate/condition.
# Pc 4-Photodynamic Treatment Conditions: The phthalocyanine photosensitizer Pc 4 was kindly provided by Dr. Malcolm E. Kenney (Department of Chemistry, Case Western Reserve University, Cleveland, Ohio, USA). Stock solutions (0.5 mM) of Pc 4 were prepared in N′,N′-dimethylformamide (DMF, ThermoFisher, Waltham, Mass., USA) and stored at 4° C. in the dark. C. albicans cultures were incubated with Pc 4 concentrations ranging from 0.1 to 1.0 μM in 1× PBS containing 10% FBS for at least 1 hr at 37° C. in the dark and subsequently irradiated with red light using a light-emitting diode array (EFOS, Mississauga, Ontario, Canada) at a fluence ranging from 1.0 to 2.0 J/cm^2 (1.0 mW/cm^2, λmax ˜670-675 nm) at room temperature.
# Colony forming unit (CFU) phototoxicity assay: CFU assay was done as described by Chandra et al. with minor modifications. […] After 24 hours, colonies were counted by eye, and all the percentage of surviving cells from the Pc 4-PDT cultures was normalized against that of cultures exposed to Pc 4 or light alone. […]
# T. rubrum [3] = experiment: XTT reduction assay after Pc 4-PDT; type: cell-based, Trichophyton rubrum
# Procedure: Terbinafine sensitive (23013) and resistant (MRL666) strains of T. rubrum were grown onto Sabouraud potato agar plate for at least 24 hours at 28° C. Microconidia were separated from most of the hyphae form before treating with Pc 4-PDT.
# [4] = system: C. albicans (strain SC-5134); experiment: DNA fragmentation by agarose gel electrophoresis; type: cell-based, Candida albicans
# Procedure: Subsequently, C. albicans total chromosomal DNA was extracted using the MasterPure™ Yeast DNA Purification Kit (Epicentre Biotechnologies, Madison, Wis., USA) per the manufacturer's protocol. Extracted DNA concentrations were determined with a spectrophotometer (Nanodrop™ 3000, ThermoFisher Scientific, Waltham, Mass., USA) at a wavelength range of 260-280 nm. DNA (3.0 μg) was loaded onto a 1.0% (w/v) agarose gel (Bioexpress, Kaysbille, Utah, USA) impregnated with ethidium bromide (ThermoFisher, Waltham, Mass., USA) and subjected to electrophoresis. The gel was subsequently visualized using a UV transilluminator (VersaDoc™, Bio-Rad, Hercules, Calif., USA).
# [5] = type: in vitro ADME, human
# From the text: Because drug penetration into and through the nail plate is always a challenge in the treatment of onychomycosis, the nail absorption of topically applied Pc 4 was also investigated. […] Considering that these samples were healthy nails, it appears that diseased/dystrophic nails whose barrier functions have been compromised may even have better Pc 4 absorption. Nonetheless, in the clinical protocol, the inventors specified that Pc 4 will be applied not only on the nail plate but also on the exposed subungual tissue and periungual area.
# T. rubrum [6] = experiment: Clonogenic (CFU) assay after Pc 4-PDT; type: cell-based, Trichophyton rubrum; conditions: 0-2 μM Pc 4, 2.0 J/cm^2
# Procedure: Cells were treated with 0-2 μM of Pc 4 for at least 2 hours before being photoirradiated with 2.0 J/cm^2.
# Mycologic cure remains the gold-standard in the evaluation of antifungal therapies and leads to lower recurrence rates. […] Immediately after photoirradiation, treated and control samples were diluted and spread 100 μL onto Sabouraud potato agar plates (Becton Dickinson, New Jersey, USA). All plates were incubated at 28° C. and colonies were counted within 5 days.
# [7] = mice, delivered systemically; cited from earlier work
smiles,measurement,setting,value
"CN(C)CCC[Si](C)(C)O[Si]1(O)n2c3c4ccccc4c2N=C2N=C(N=c4c5ccccc5c(n41)=NC1=NC(=N3)c3ccccc31)c1ccccc12 (centres unmarked) [Pc 4, HOSiPcOSi(CH3)2(CH2)3N(CH3)2]",tolerability,[1],well-tolerated
same,cell killing / reduction of cell survival (CFU),"[2]; 1.0 μM Pc 4, light at 2.0 J/cm^2 (670-675 nm)",4 logs
same,effect of photosensitizer alone on cell proliferation and cell death,"[2]; highest dose of Pc 4, no light, compared to untreated cells",neither the highest dose of photosensitizer alone nor light alone affected cell proliferation and cell death
same,metabolic activity (XTT),T. rubrum [3]; terbinafine resistant strain MRL666,attenuates following Pc 4-PDT
same,metabolic activity (XTT),T. rubrum [3]; terbinafine sensitive strain 23013,attenuates following Pc 4-PDT
same,DNA fragmentation,[4]; 0.4 μM Pc 4-PDT,clear evidence of DNA degradation
same,DNA fragmentation,[4]; 0.6 μM Pc 4-PDT,matched that of the hydrogen peroxide positive control
same,Pc 4 fluorescence within the nail plate,[5],significant amount of Pc 4 fluorescence can be detected within the nail plate
same,survival (CFU),T. rubrum [6]; terbinafine-resistant strain MRL666,dose-dependent decrease in the survival
same,survival (CFU),T. rubrum [6]; terbinafine-sensitive strain 23013,dose-dependent decrease in the survival
same,clearance compared with Photofrin,[7],much more rapidly cleared than Photofrin
